Here are results for one compound from article PMC9229949 (Pharmaceutics, 2022).

The target of test [1] is T1, human glutathione reductase (hGR) (Homo sapiens, UniProt P00390).
T1 construct: made in house
T1 sequence (P00390 44-522): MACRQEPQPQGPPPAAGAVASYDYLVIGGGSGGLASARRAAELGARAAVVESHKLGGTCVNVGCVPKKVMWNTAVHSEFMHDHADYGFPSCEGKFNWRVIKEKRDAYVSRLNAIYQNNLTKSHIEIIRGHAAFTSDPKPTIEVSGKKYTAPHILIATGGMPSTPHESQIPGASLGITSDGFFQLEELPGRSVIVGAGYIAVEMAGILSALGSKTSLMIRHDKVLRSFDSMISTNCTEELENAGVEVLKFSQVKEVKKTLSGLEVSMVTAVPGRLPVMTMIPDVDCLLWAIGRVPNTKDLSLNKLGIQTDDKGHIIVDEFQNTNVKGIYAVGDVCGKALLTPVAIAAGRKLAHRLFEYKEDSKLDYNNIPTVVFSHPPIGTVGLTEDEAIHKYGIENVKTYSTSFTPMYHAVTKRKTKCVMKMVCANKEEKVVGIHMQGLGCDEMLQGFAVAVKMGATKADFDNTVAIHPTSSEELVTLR
As to the kind of experiment: Inhibition of enzymatic activity of recombinant human glutathione reductase. The test is classed as biochemical. The conditions noted are these: recombinant enzyme, 15 min preincubation; mean of one experiment; read-out: IC50, Human GR. Here is the method:
(§1) The codon-optimized sequence for PfTrxR [27, 28] was synthesized and subcloned into pET-15b (Genscript) and expressed and purified as for human glutathione reductase (hGR). Recombinant Schistosoma mansoni (S. mansoni) thioredoxin glutathione reductase (SmTGR), human TrxR (hTrxR), and hGR proteins were expressed and purified as described. TrxR and TGR enzyme inhibition assays were performed in triplicate at 25 °C in 0.1 M potassium phosphate (pH 7.4), 10 mM EDTA, 100 µM NADPH and 0.01% Tween-20. SmTGR (4 nM), hTrxR (4 nM), and PfTrxR (50 nM) were preincubated with the compounds for 15 min. The reaction was started with addition of an equal volume of 5,5′-dithiobis(2-nitrobenzoic acid) (6 mM) and NADPH (100 µM). The increase in A412 during the first 3 min was recorded. […]. The reactions were performed in triplicate. The IC50s were calculated in Prism version 5.01.

The target in the next test is T2, PfTrxR (Plasmodium falciparum, UniProt Q25861).
T2 construct: made in house
T2 sequence (Q25861 1-541): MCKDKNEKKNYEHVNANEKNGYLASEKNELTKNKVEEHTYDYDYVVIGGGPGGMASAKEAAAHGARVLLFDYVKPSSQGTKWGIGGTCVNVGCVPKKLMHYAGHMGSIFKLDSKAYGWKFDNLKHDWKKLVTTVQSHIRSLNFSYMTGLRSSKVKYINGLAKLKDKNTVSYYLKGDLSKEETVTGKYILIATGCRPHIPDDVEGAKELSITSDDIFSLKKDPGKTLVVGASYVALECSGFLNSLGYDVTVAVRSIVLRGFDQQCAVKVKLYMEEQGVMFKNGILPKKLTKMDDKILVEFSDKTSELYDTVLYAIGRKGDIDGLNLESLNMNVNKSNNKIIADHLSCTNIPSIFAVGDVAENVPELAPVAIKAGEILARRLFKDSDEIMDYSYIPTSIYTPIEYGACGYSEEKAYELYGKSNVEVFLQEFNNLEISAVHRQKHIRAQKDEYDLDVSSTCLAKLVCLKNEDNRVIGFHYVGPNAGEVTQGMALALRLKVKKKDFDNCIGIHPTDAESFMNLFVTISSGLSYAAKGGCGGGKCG
Briefly: Inhibition of enzymatic activity of recombinant P. falciparum TrxR. Particulars: recombinant enzyme, 15 min preincubation; mean of one experiment; read-out: IC50 for TrxRs, P. falciparum (Cys). In kind it is biochemical. The protocol:
as §1

The target in test [2] is T3, S. mansoni thioredoxin-glutathione reductase (SmTGR) (Schistosoma mansoni, UniProt Q962Y6).
T3 construct: made in house
T3 sequence (Q962Y6 1-598): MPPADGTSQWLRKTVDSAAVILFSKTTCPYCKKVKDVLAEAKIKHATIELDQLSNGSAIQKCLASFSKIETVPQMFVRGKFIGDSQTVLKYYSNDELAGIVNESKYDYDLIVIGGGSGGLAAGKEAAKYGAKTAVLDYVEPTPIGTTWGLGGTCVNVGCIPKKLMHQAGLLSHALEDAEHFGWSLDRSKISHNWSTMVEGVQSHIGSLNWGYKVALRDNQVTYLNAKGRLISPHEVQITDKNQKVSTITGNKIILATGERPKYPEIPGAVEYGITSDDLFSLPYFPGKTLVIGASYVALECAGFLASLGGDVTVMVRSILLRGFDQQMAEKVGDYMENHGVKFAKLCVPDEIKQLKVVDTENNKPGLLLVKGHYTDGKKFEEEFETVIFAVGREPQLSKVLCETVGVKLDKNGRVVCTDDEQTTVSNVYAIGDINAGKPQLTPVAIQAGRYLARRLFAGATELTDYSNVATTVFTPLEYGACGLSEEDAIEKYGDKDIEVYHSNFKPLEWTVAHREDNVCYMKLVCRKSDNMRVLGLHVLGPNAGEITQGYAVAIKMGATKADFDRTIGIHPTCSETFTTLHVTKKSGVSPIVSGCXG
Briefly: Inhibition of enzymatic activity of recombinant S. mansoni thioredoxin glutathione reductase. The test is classed as biochemical. The conditions noted are these: 15 min preincubation, mean of one experiment, read-out: IC50 for TrxRs, S. mansoni (Sec). The protocol: as §1

The subject of test [3] is P. falciparum 3D7 (CQ-susceptible) asexual blood stages. Set-up: method as in PMID 29465117. Particulars: in vitro antiplasmodial activity; read-out: P. falciparum 3D7 (Cell Based Activity), IC50; cited from earlier work.
The next test addresses T4, human TrxR (hTrxR) (Homo sapiens, UniProt Q16881).
T4 construct: made in house
T4 sequence (Q16881 151-649 limits assumed): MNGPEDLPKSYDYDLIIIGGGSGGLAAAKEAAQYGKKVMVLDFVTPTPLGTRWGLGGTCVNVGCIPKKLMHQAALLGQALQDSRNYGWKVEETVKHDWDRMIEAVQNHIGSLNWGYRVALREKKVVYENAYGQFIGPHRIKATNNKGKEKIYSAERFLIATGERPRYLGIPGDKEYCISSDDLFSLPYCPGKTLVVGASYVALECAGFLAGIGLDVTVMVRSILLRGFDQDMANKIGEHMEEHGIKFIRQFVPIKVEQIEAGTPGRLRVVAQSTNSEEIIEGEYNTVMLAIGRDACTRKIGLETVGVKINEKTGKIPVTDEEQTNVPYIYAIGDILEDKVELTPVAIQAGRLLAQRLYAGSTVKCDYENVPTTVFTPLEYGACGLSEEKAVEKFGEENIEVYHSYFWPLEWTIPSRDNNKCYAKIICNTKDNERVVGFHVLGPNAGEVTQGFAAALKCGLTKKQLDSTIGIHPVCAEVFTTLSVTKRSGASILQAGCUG
Briefly: Inhibition of enzymatic activity of recombinant human TrxR. In kind it is biochemical. The conditions noted are these: recombinant enzyme, 15 min preincubation; mean of one experiment; read-out: IC50 for TrxRs, Human (Sec). The protocol: as §1

Each structure is given as a SMILES string.

For orientation: IC50 means the concentration at which inhibition is half-maximal. In the case of `CC(=O)OC[C@H]1O[C@@H]([S-])[C@H](OC(C)=O)[C@@H](OC(C)=O)[C@@H]1OC(C)=O.CCP(CC)CC.[Au+]` [Auranofin, auranofin], the IC50 was 40000 nM in test [1]; 62 nM at PfTrxR; 7 nM in test [2]; 60 nM in test [3]; 20 nM on human TrxR (hTrxR).
